Laboratory results published in patent publication US10882856B2 (BeiGene, Ltd., priority 2017, dated 2021).

Key:
IDO1 [1] = molecular target: T1, IDO1 (Homo sapiens, UniProt P14902); assay: Hela cell-based IDO1 assay; settings: Hela cells
How it was run: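 Kynurenine was measured at 480 nm in trichloroacetic acid-deproteinised supernatant after adding 2% 4-(dimethylamino)benzaldehyde. This supernatant came from HeLa cells seeded at 8000 per well in 96-well plates in phenol red-free DMEM with 10% FBS and, from 4 hours after seeding, exposed for 48 hours at 37 °C, 5% CO2 to DMSO-diluted compound dilutions, IFN-γ (final 100 ng/mL) and 0.4 mM L-Trp. The resulting data were fitted with a four-parameter logistic model in XLfit. Potency was taken from those fits.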

[2] = molecular target: T2, cellular TDO2 in HEK293-TDO2 cells (Homo sapiens, UniProt P48775); assay: 293-TDO2 cell-based assay (Kyn colorimetric); settings: 48 hours of incubation
T2 construct: expressed in transfected cells; host or cells: HEK293 (ATCC), stably transfected
How it was run: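 Kyn formed from L-Trp was read colorimetrically at 480 nm (TCA deproteinisation, then 2% 4-(dimethylamino)benzaldehyde). Compounds were added to 293-TDO2 cells 4 h post-seeding and left 48 h at 37° C. A four-parameter logistic model gave IC50 values.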

IDO1 [3] = molecular target: T1, IDO1; assay: IDO1 enzymatic assay; assay type: biochemical; parameters: His tag (N); made in house; host or cells: E. coli; settings: read-out: Enzyme IC50 IDO1
How it was run: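 Compound was incubated with 50 nM His-tagged IDO1 from E. coli, 1.3 mM D-tryptophan, 5 mM L-ascorbic acid, methylene blue and 0.4 mg/mL catalase in 50 mM potassium phosphate pH 7.5, 0.1% BSA, at 24 °C for 1.5 hours. Activity was the slope of N'-formylkynurenine formation read continuously at 321 nm for 1 hour. IC50 was obtained from remaining activity versus compound concentration.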

T1 sequence (P14902 whole entry): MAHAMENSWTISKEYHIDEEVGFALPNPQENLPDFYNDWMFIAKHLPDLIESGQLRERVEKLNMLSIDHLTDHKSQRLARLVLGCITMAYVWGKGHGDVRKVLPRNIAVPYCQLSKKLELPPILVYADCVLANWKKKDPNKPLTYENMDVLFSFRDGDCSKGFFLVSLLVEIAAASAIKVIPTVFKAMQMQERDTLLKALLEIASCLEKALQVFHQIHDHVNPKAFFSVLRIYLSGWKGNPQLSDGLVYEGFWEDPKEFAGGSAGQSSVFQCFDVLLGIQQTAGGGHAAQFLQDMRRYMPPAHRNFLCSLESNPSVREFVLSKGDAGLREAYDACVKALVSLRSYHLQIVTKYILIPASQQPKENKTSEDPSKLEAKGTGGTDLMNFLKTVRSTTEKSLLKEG
T2 sequence (P48775 whole entry): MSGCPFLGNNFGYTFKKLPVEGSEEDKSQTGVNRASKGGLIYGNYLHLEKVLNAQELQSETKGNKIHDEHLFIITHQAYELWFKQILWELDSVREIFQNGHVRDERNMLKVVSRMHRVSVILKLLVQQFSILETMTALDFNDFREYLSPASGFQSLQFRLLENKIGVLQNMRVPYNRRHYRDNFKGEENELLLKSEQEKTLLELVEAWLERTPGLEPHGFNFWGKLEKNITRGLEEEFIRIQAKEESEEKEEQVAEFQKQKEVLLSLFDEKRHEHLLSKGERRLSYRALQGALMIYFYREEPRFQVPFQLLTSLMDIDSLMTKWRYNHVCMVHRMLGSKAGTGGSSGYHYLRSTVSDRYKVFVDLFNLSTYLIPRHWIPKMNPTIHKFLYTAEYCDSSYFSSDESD

Row | Structure (SMILES) | EC50 (IDO1 [1]) | EC50 [2] | IC50 (IDO1 [3])
1 | OC(c1c(C2CC2)ccn2cncc12)C1CCC(c2ccc(OC3COC3)cc2)CC1 (stereo not drawn) [Example C117, (7-cyclopropylimidazo[1,5-a]pyridin-8-yl)(4-(4-(oxetan-3-yloxy)phenyl)cyclohexyl)methanol] | 184 nM | > 10000 nM | 35 nM
2 | OC(c1cc(Cl)cc2cncn12)C1CCC(c2ccc3ccccc3c2)CC1 (stereo not drawn) [Example E104, (7-chloroimidazo[1,5-a]pyridin-5-yl)(4-(naphthalen-2-yl)cyclohexyl)methanol] | 5440 nM | > 10000 nM | 80 nM
3 | OC(c1c(C2CC2)ccn2cncc12)C1CCN(c2ccc(Cl)c3ncccc23)CC1 (stereo not drawn) [Example C154, (1-(8-chloroquinolin-5-yl)piperidin-4-yl)(7-cyclopropylimidazo[1,5-a]pyridin-8-yl)methanol] | 49 nM | > 10000 nM | 36 nM
4 | OC(c1c(C2CC2)ccc2cncn12)[C@H]1CC[C@H](c2ccc3ccsc3c2)CC1 (single isomer, unassigned) [Example D134b] | 5670 nM | > 10000 nM | 2700 nM
5 | OC(c1c(C2CC2)ccc2cncn12)C1CCC(c2ccc3ncccc3c2)CC1 (stereo not drawn) [Example D157, (6-cyclopropylimidazo[1,5-a]pyridin-5-yl)(4-(quinolin-6-yl)cyclohexyl)methanol] | 75 nM | > 10000 nM | 31 nM
6 | OC(c1c(C2CC2)ccn2cncc12)C1CCN(c2ccc(F)c3ncccc23)CC1 (single isomer, unassigned) [Example C149b] | 2910 nM | > 10000 nM | 2400 nM
7 | OC(c1c(C2CC2)ccc2cncn12)C1CCC(c2ccc(F)cc2)CC1 (stereo not drawn) [Example D104, (6-cyclopropylimidazo[1,5-a]pyridin-5-yl)(4-(4-fluorophenyl)cyclohexyl)methanol] | 44 nM | > 10000 nM | 33 nM
8 | O[C@@H](c1c(C2CC2)ccc2cncn12)C1CCN(c2ccc(F)c3ncccc23)CC1 (single isomer, unassigned) [Example D175b] | 407 nM | > 10000 nM | 740 nM
9 | OC(c1c(C2CC2)ccc2cncn12)[C@H]1CC[C@H](c2ccc(F)cc2Cl)CC1 (single isomer, unassigned) [Example D130a] | 203 nM | > 10000 nM | 30 nM
10 | OC(c1c(C2CC2)ccc2cncn12)C1CCC(c2cccc(F)c2)CC1 (stereo not drawn) [Example D156, (6-cyclopropylimidazo[1,5-a]pyridin-5-yl)(4-(3-fluorophenyl)cyclohexyl)methanol] | 75 nM | > 10000 nM | 57 nM
11 | O[C@@H](c1c(C2CC2)ccc2cncn12)C1CCN(c2ccc(F)cc2)CC1 (single isomer, unassigned) [Example D171b] | 5740 nM | > 10000 nM | 8260 nM
12 | COc1ccc(C2CCC(C(O)c3c(C4CC4)ccc4cncn34)CC2)c2ccccc12 (stereo not drawn) [Example D139, (6-cyclopropylimidazo[1,5-a]pyridin-5-yl)(4-(4-methoxynaphthalen-1-yl)cyclohexyl)methanol] | 977 nM | > 10000 nM | 75 nM
13 | O[C@@H](c1c(C2CC2)ccc2cncn12)[C@H]1CC[C@H](c2ccc(F)c3ccccc32)CC1 (single isomer, unassigned) [Example D137b] | 2100 nM | > 10000 nM | 1700 nM
14 | OC(c1c(C2CC2)ccc2cncn12)C1CCN(c2cccc(F)c2)CC1 (stereo not drawn) [Example D172] | 58 nM | > 10000 nM | 28 nM
15 | CC(C)c1ccc2cncn2c1[C@@H](O)[C@H]1CC[C@H](c2cccc(F)c2)CC1 (single isomer, unassigned) [Example D167a] | 15 nM | > 10000 nM | 18 nM
16 | OC(c1c(C2CC2)ccc2cncn12)C1CCN(c2ccccc2)CC1 (stereo not drawn) [Example D170, (6-cycloropylimidazo[1,5-a]pyridin-5-yl)(1-phenylpiperidin-4-yl)methanol] | 43 nM | > 10000 nM | 21 nM
17 | OC(c1c(C2CC2)ccn2cncc12)C1CCC(c2ccc(OC3CCCC3)cc2)CC1 (stereo not drawn) [Example C118, (4-(4-(cyclopentyloxy)phenyl)cyclohexyl)(7-cyclopropylimidazo[1,5-a]pyridin-8-yl)methanol] | 259 nM | > 10000 nM | 120 nM
18 | OC(c1c(C2CC2)ccc2cncn12)C1CCC(c2ccc(OC3COC3)cc2)CC1 (stereo not drawn) [Example D109, (6-cyclopropylimidazo[1,5-a]pyridin-5-yl)(4-(4-(oxetan-3-yloxy)phenyl)cyclohexyl)methanol] | 206 nM | > 10000 nM | 39 nM

Row | Structure (SMILES) | EC50 (IDO1 [1]) | EC50 [2] | IC50 (IDO1 [3])
19 | O[C@@H](c1c(C2CC2)ccn2cncc12)[C@H]1CC[C@H](c2cccc(F)c2)CC1 (single isomer, unassigned) [Example C109b] | > 10000 nM | > 10000 nM | > 10000 nM
20 | OC(c1c(C2CC2)ccn2cncc12)C1CCN(c2ccncc2)CC1 (stereo not drawn) [Example C147, (7-cyclopropylimidazo[1,5-a]pyridin-8-yl)(1-(pyridin-4-yl)piperidin-4-yl)methanol] | > 10000 nM | > 10000 nM | 2300 nM
21 | OC(c1c(C2CC2)ccn2cncc12)C1CCN(c2cccnc2)CC1 (stereo not drawn) [Example C148, (7-cyclopropylimidazo[1,5-a]pyridin-8-yl)(1-(pyridin-3-yl)piperidin-4-yl)methanol] | 1300 nM | > 10000 nM | 74 nM
22 | CNC(=O)c1ccc(C2CCC(C(O)c3c(C4CC4)ccc4cncn34)CC2)cc1 (stereo not drawn) [Example D124, 4-(4-((6-cyclopropylimidazo[1,5-a]pyridin-5-yl)(hydroxy)methyl)cyclohexyl)-N-methylbenzamide] | 188 nM | > 10000 nM | 22 nM
23 | OC(c1c(C2CC2)ccn2cncc12)C1CCN(c2cccc(Cl)c2)CC1 (stereo not drawn) [Example C140, (1-(3-chlorophenyl)piperidin-4-yl)(7-cyclopropylimidazo[1,5-a]pyridin-8-yl)methanol] | 304 nM | > 10000 nM | 140 nM
24 | O[C@@H](c1c(C2CC2)ccn2cncc12)[C@H]1CC[C@H](c2ccccc2F)CC1 (single isomer, unassigned) [Example C108b] | > 10000 nM | > 10000 nM | 7300 nM
25 | O[C@@H](c1c(C2CC2)ccn2cncc12)[C@H]1CC[C@H](c2ccc(OC3CCCC3)cc2)CC1 (single isomer, unassigned) [Example C118b] | > 10000 nM | > 10000 nM | 3000 nM
26 | Cc1cccc([C@H]2CC[C@H]([C@@H](O)c3c(C4CC4)ccn4cncc34)CC2)c1 (single isomer, unassigned) [Example C111b] | > 10000 nM | > 10000 nM | > 10000 nM
27 | O[C@H](c1c(C2CC2)ccc2cncn12)C1CCN(c2ccc(Cl)cc2)CC1 (single isomer, unassigned) [Example D174a] | 80 nM | > 10000 nM | 15 nM
28 | N#Cc1ccc(N2CCC(C(O)c3c(C4CC4)ccn4cncc34)CC2)cc1 (single isomer, unassigned) [Example C144a] | 476 nM | > 10000 nM | 19 nM
29 | CC(C)c1ccc2cncn2c1C(O)C1CCC(c2ccc(Cl)cc2)CC1 (stereo not drawn) [Example D115, (4-(4-chlorophenyl)cyclohexyl)(6-isopropylimidazo[1,5-a]pyridin-5-yl)methanol] | 157 nM | > 10000 nM | 57 nM
30 | O=C(O)c1ccc([C@H]2CC[C@H]([C@H](O)c3c(C4CC4)ccc4cncn34)CC2)cc1 (single isomer, unassigned) [Example D111a] | 351 nM | > 10000 nM | 17 nM
31 | N#Cc1ccc([C@H]2CC[C@H]([C@@H](O)c3c(C4CC4)ccc4cncn34)CC2)cc1 (single isomer, unassigned) [Example D110b] | > 10000 nM | > 10000 nM | > 10000 nM
32 | O[C@@H](c1c(C2CC2)ccc2cncn12)C1CCN(c2ccc(Cl)c3ncccc23)CC1 (single isomer, unassigned) [Example D178b] | 1470 nM | > 10000 nM | 2300 nM
33 | Oc1ccc(C2CCC(C(O)c3c(C4CC4)ccc4cncn34)CC2)c2ccccc12 (stereo not drawn) [Example D138, (6-cyclopropylimidazo[1,5-a]pyridin-5-yl)(4-(4-hydroxynaphthalen-1-yl)cyclohexyl)methanol] | 583 nM | > 10000 nM | 62 nM
34 | OC(c1c(C2CC2)ccn2cncc12)C1CCN(c2ccc(F)cc2)CC1 (single isomer, unassigned) [Example C137a] | 74 nM | > 10000 nM | 26 nM
35 | OC(c1c(C2CC2)ccn2cncc12)C1CCN(c2ccnc3ccccc23)CC1 (stereo not drawn) [Example C150, (7-cyclopropylimidazo[1,5-a]pyridin-8-yl)(1-(quinolin-4-yl)piperidin-4-yl)methanol] | 1510 nM | > 10000 nM | 160 nM
